These results are taken from patent US9951060B2, “2-acylaminothiazole derivative or salt thereof” (ASTELLAS PHARMA INC., priority 2014, dated 2018).

Data set [1] deals with T1, human c-Mpl-introduced Ba/F3 cell (Homo sapiens, UniProt P40238).
T1 construct: expressed in transfected cells
T1 sequence (P40238 26-635): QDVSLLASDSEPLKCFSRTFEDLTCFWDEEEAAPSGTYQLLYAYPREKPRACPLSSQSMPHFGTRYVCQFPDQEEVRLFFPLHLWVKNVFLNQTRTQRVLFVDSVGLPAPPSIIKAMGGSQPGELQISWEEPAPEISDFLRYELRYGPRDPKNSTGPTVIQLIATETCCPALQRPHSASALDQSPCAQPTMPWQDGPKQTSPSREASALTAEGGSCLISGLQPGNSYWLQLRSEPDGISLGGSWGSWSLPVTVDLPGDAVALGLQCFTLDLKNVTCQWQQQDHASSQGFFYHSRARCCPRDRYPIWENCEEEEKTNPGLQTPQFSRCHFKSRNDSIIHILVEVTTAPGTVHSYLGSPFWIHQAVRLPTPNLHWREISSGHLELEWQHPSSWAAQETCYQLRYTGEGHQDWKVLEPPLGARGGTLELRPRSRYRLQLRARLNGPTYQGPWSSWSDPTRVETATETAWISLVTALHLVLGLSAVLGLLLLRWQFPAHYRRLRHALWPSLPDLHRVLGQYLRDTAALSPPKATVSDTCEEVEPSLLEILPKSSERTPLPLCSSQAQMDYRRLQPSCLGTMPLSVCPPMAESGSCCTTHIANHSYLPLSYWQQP
As to the kind of experiment: Test Example 2: human c-Mpl-introduced Ba/F3 cell proliferative activity. The class given is cell-based. The note with it: concentration exhibiting 30% proliferation; 100% = positive control (Example 315 of Patent Document 1) at 1 μM. As to the method:
Test Example 2: Evaluation of Human c-Mpl-Introduced Ba/F3 Cell Proliferative Activity
The human c-Mpl-introduced Ba/F3 cell proliferation action was measured by the following method.
As a positive control, 1-(5-{[4-(4-chlorothiophen-2-yl)-5-{[(2R)-2-methylpyrrolidin-1-yl]methyl}-1,3-thiazol-2-yl]carbamoyl}-3-fluoropyridin-2-yl)piperidine-4-carboxylic acid hydrochloride disclosed as Example 315 in Patent Document 1, represented by the formula (A1) above, was used. Further, it is known that the compound has a good human c-Mpl-introduced Ba/F3 cell proliferative activity as disclosed in Table 1 in Patent Document 1.
a) Construction of Vector Expressing Human c-Mpl Receptor
A human c-Mpl receptor gene (GenBank Accession No.: M90102.1) was transfected into an expression vector pEF-BOS (Nucleic Acids Research, 18: pp 5322 (1990)).
b) Construction of Cell Stably Expressing Human c-Mpl Receptor
A vector expressing a human c-Mpl receptor was introduced into a Ba/F3 cell (RIKEN BRC: RCB0805). For the introduction, an electroporation method was used. pEF-BOS-c-mpl (10 μg), pSV2bsr (1 μg, Kaken Pharmaceutical Co., Ltd.) and 1×10^7 of Ba/F3 cells were put into cuvettes with a gap width of 0.4 cm and electroporated under a condition of 1.5 kV (25 μF) in a Gene Pulser (registered trademark) (BioRad). The cells were incubated in an RPMI-1640 medium supplemented with a 0.5% WEHI conditioned medium (BD Biosciences) and 10% fetal bovine serum for 3 days, and thereafter, and the cells were incubated for 30 days in an RPMI-1640 medium, to which 10 μg/mL blasticidin had been further added, thereby acquiring a drug-resistant clone.
c) Measurement of Cell Proliferative Activity
The cells obtained in b) above were dispensed into an RPMI-1640 medium supplemented with a 0.5% WEHI conditioned medium and 10% fetal bovine serum, and used. The day before the experiment, the test substances (final concentration of 100 nM to 10 μM) which had been dissolved in a medium for assay (an RPMI-1640 medium supplemented with 10% fetal bovine serum) were added to a 384-well plate (Model No. 781185, Greiner bio-one). The cells after the medium had been replaced with the medium for assay were dispensed to a 384-well plate to which the test substance had been added, to 1×10^4 cells/well, and incubated overnight at 37° C. and 5% CO2. On the experiment day, a solution of a Cell counting kit (Dojindo Laboratories) was added to each well of the 384-well plate, and the cells were incubated for about 5 hours at 37° C. and 5% CO2. Thereafter, the absorbance (an absorbance wavelength of 450 nm) of each well was measured using Safire^2 (registered trademark) (TECAN), and used as an index for the number of cells. Further, as a negative control, a well to which the test substances had not been added was prepared.
By taking the absorbance of the well to which the test substance had been not added as 0% and taking the absorbance in a case where the positive control had been added to a final concentration of 1 μM as 100%, a cell proliferation rate (%) was calculated from the absorbance of the well to which the test substance had been added.

Data set [2] has as its target human muscarinic M3 receptor (Homo sapiens, UniProt P20309).

Sequence of human muscarinic M3 receptor (P20309 whole entry): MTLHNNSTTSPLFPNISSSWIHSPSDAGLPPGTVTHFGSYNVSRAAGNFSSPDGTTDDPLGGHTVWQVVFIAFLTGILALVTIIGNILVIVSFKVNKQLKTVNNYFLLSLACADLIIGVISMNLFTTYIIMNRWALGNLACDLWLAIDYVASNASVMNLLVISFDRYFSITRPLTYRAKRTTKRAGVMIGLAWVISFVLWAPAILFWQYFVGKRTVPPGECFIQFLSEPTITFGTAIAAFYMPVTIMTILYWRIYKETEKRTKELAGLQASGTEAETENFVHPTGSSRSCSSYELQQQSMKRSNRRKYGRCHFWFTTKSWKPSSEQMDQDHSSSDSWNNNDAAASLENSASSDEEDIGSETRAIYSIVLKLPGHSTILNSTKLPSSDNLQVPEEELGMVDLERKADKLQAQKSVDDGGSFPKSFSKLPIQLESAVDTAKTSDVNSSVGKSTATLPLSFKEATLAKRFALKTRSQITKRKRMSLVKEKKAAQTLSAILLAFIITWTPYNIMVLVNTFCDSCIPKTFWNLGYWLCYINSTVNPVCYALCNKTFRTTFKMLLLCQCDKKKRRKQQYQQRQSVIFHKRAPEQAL

Regarding `CCOc1ccc(-c2nc(NC(=O)c3cnc(N4CCN(CCC(=O)O)CC4)cn3)sc2CN2CCC[C@H]2C)cc1C(F)(F)F` [Example 54], the “human c-Mpl-introduced Ba/F3 cell proliferative activity EC30” value in data set [1] was over 10 µM. Moreover, in data set [2], the “muscarinic M3 receptor-positive allosteric modulator activity, 1 μM (-fold shift)” value is on record as 36 -fold shift and the “muscarinic M3 receptor-positive allosteric modulator activity, 10 μM (-fold shift)” value is 134 -fold shift.
For the molecule `COc1ncc(-c2nc(NC(=O)c3cnc(N4CCN(CCC(=O)O)CC4)cn3)sc2CN2CCC[C@H]2C)cc1C(F)(F)F` [Example 33], the “human c-Mpl-introduced Ba/F3 cell proliferative activity EC30” value in data set [1] was over 10 µM. Also, in data set [2], the “muscarinic M3 receptor-positive allosteric modulator activity, 1 μM (-fold shift)” value is given as 40 -fold shift and the “muscarinic M3 receptor-positive allosteric modulator activity, 10 μM (-fold shift)” value was 182 -fold shift.
With `C[C@H]1CN(c2cnc(C(=O)Nc3nc(-c4cc(Cl)cs4)c(CN(C)CC4CC4)s3)cn2)CCN1CCC(=O)O` [Example 128], the “human c-Mpl-introduced Ba/F3 cell proliferative activity EC30” value in data set [1] came out at 8 µM. Besides, in data set [2], the “muscarinic M3 receptor-positive allosteric modulator activity, 1 μM (-fold shift)” value is 73 -fold shift and the “muscarinic M3 receptor-positive allosteric modulator activity, 10 μM (-fold shift)” value is 192 -fold shift.
For the molecule `C[C@@H]1CCCN1Cc1sc(NC(=O)c2cnc(N3CCN(CCC(=O)O)C[C@H]3C)cn2)nc1-c1cc(Br)cs1` [Example 101], the “human c-Mpl-introduced Ba/F3 cell proliferative activity EC30” value in data set [1] came out at 2.7 µM. Further, in data set [2], the “muscarinic M3 receptor-positive allosteric modulator activity, 1 μM (-fold shift)” value is 64 -fold shift and the “muscarinic M3 receptor-positive allosteric modulator activity, 10 μM (-fold shift)” value is 112 -fold shift.
The corresponding values for `C[C@@H]1CN(c2cnc(C(=O)Nc3nc(-c4cc(Cl)cs4)c(CN4CCC[C@H]4C)s3)cn2)CCN1CCC(=O)O` [Example 79] are 1.8 µM, 60 -fold shift and 171 -fold shift.
Take `CC(C(=O)O)N1CCN(c2cnc(C(=O)Nc3nc(-c4cc(Cl)cc(C(F)(F)F)c4)c(CN4CCC[C@H]4C)s3)cn2)CC1` (stereo partly drawn) [Example 12]: the “human c-Mpl-introduced Ba/F3 cell proliferative activity EC30” value in data set [1] is over 10 µM. Further, in data set [2], the “muscarinic M3 receptor-positive allosteric modulator activity, 1 μM (-fold shift)” value was 33 -fold shift and the “muscarinic M3 receptor-positive allosteric modulator activity, 10 μM (-fold shift)” value is listed as 178 -fold shift.
`CCN(CC)Cc1sc(NC(=O)c2cnc(N3CCN(CC(=O)O)C[C@H]3C)cn2)nc1-c1cc(F)cc(C(F)(F)F)c1` [Example 118]: the “human c-Mpl-introduced Ba/F3 cell proliferative activity EC30” value in data set [1] is over 10 µM. Further, in data set [2], the “muscarinic M3 receptor-positive allosteric modulator activity, 1 μM (-fold shift)” value is reported as 57 -fold shift and the “muscarinic M3 receptor-positive allosteric modulator activity, 10 μM (-fold shift)” value is 167 -fold shift.
On to `C[C@@H]1CCCN1Cc1sc(NC(=O)c2cnc(N3CCN(CCC(=O)O)C[C@@H]3C)cn2)nc1-c1cc(F)cc(C(F)(F)F)c1` [Example 17], for which, in data set [1], the “human c-Mpl-introduced Ba/F3 cell proliferative activity EC30” value is over 10 µM. In addition, in data set [2], the “muscarinic M3 receptor-positive allosteric modulator activity, 1 μM (-fold shift)” value is on record as 15 -fold shift and the “muscarinic M3 receptor-positive allosteric modulator activity, 10 μM (-fold shift)” value is given as 109 -fold shift.
In the case of `C[C@@H]1CCCN1Cc1sc(NC(=O)c2cnc(N3CCN(CC(=O)O)CC3)cn2)nc1-c1cc(C(F)(F)F)cs1` [Example 103], the “human c-Mpl-introduced Ba/F3 cell proliferative activity EC30” value in data set [1] is 1.7 µM. In data set [2], the “muscarinic M3 receptor-positive allosteric modulator activity, 1 μM (-fold shift)” value is on record as 202 -fold shift and the “muscarinic M3 receptor-positive allosteric modulator activity, 10 μM (-fold shift)” value was 307 -fold shift.
As for `Cc1cc(-c2nc(NC(=O)c3cnc(N4CCN(CC(=O)O)CC4)cn3)sc2CN2CCC[C@H]2C)cc(C(F)(F)F)c1` [Example 71], in data set [1], the “human c-Mpl-introduced Ba/F3 cell proliferative activity EC30” value is over 10 µM. Besides, in data set [2], the “muscarinic M3 receptor-positive allosteric modulator activity, 1 μM (-fold shift)” value is on record as 28 -fold shift and the “muscarinic M3 receptor-positive allosteric modulator activity, 10 μM (-fold shift)” value is given as 151 -fold shift.
As to `CN(Cc1sc(NC(=O)c2cnc(N3CCN(CCC(=O)O)CC3)cn2)nc1-c1cc(F)cc(C(F)(F)F)c1)CC1CC1` [Example 108], the “human c-Mpl-introduced Ba/F3 cell proliferative activity EC30” value in data set [1] was over 10 µM. In data set [2], the “muscarinic M3 receptor-positive allosteric modulator activity, 1 μM (-fold shift)” value is recorded as 56 -fold shift and the “muscarinic M3 receptor-positive allosteric modulator activity, 10 μM (-fold shift)” value is reported as 169 -fold shift.
`COc1c(F)cc(-c2nc(NC(=O)c3cnc(N4CCN(CCC(=O)O)C[C@H]4C)cn3)sc2CN2CCC[C@H]2C)cc1C(F)(F)F` [Example 92]: the “human c-Mpl-introduced Ba/F3 cell proliferative activity EC30” value in data set [1] is over 10 µM. Besides, in data set [2], the “muscarinic M3 receptor-positive allosteric modulator activity, 1 μM (-fold shift)” value is on record as 30 -fold shift and the “muscarinic M3 receptor-positive allosteric modulator activity, 10 μM (-fold shift)” value is reported as 203 -fold shift.
The corresponding values for `C[C@@H]1CC[C@@H](C)N1Cc1sc(NC(=O)c2cnc(N3CCN(CCC(=O)O)CC3)cn2)nc1-c1cc(C(F)(F)F)cs1` [Example 111] are 5 µM, 203 -fold shift and 627 -fold shift.
The corresponding values for `CC[C@@H]1CCCN1Cc1sc(NC(=O)c2cnc(N3CCN(CC(=O)O)CC3)cn2)nc1-c1cc(F)cc(C(F)(F)F)c1` [Example 62] are over 10 µM, 37 -fold shift and 195 -fold shift.
On to `CC[C@@H]1CCCN1Cc1sc(NC(=O)c2cnc(N3CCN(CC(=O)O)CC3)cn2)nc1-c1ccc(OC)c(C(F)(F)F)c1` [Example 41], for which, in data set [1], the “human c-Mpl-introduced Ba/F3 cell proliferative activity EC30” value is over 10 µM. For the same molecule, in data set [2], the “muscarinic M3 receptor-positive allosteric modulator activity, 1 μM (-fold shift)” value is 43 -fold shift and the “muscarinic M3 receptor-positive allosteric modulator activity, 10 μM (-fold shift)” value is 160 -fold shift.
Regarding `CC[C@@H]1CCCN1Cc1sc(NC(=O)c2cnc(N3CCN(CCC(=O)O)[C@@H](C)C3)cn2)nc1-c1cc(Cl)cs1` [Example 81], the “human c-Mpl-introduced Ba/F3 cell proliferative activity EC30” value in data set [1] worked out at 0.5 µM. Moreover, in data set [2], the “muscarinic M3 receptor-positive allosteric modulator activity, 1 μM (-fold shift)” value is reported as 89 -fold shift and the “muscarinic M3 receptor-positive allosteric modulator activity, 10 μM (-fold shift)” value is given as 94 -fold shift.
`CC(C)CN(C)Cc1sc(NC(=O)c2cnc(N3CCN(CCC(=O)O)CC3)cn2)nc1-c1cc(F)cc(C(F)(F)F)c1` [Example 107]: in data set [1], the “human c-Mpl-introduced Ba/F3 cell proliferative activity EC30” value was over 10 µM. Also, in data set [2], the “muscarinic M3 receptor-positive allosteric modulator activity, 1 μM (-fold shift)” value was 73 -fold shift and the “muscarinic M3 receptor-positive allosteric modulator activity, 10 μM (-fold shift)” value is recorded as 318 -fold shift.
In the case of `C[C@@H]1CCCN1Cc1sc(NC(=O)c2cnc(N3CCN(CCC(=O)O)CC3)cn2)nc1-c1cc(Br)cs1` [Example 97], the “human c-Mpl-introduced Ba/F3 cell proliferative activity EC30” value in data set [1] is 2.8 µM. Moreover, in data set [2], the “muscarinic M3 receptor-positive allosteric modulator activity, 1 μM (-fold shift)” value is on record as 55 -fold shift and the “muscarinic M3 receptor-positive allosteric modulator activity, 10 μM (-fold shift)” value is 121 -fold shift.
As to `C[C@@H]1CCCN1Cc1sc(NC(=O)c2cnc(N3CCN(CCC(=O)O)CC3)cn2)nc1-c1cc2ccccc2s1` [Example 132], the “human c-Mpl-introduced Ba/F3 cell proliferative activity EC30” value in data set [1] was over 10 µM. In data set [2], the “muscarinic M3 receptor-positive allosteric modulator activity, 1 μM (-fold shift)” value was 15 -fold shift and the “muscarinic M3 receptor-positive allosteric modulator activity, 10 μM (-fold shift)” value is recorded as 41 -fold shift.
